According to ChEMBL document CHEMBL1201862, “PubChem BioAssay data set” (2004):
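Exposure lasted 48 hours, with cells grown in 96-well plates and compounds tested at five concentrations. GI50: concentration for 50% inhibition of growth.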 The source made the active and inactive calls. Rule as the data show it: active = GI50 up to about 1.1 µM and inactive = higher.

Tests used:
Assay in all cases: NCI anticancer screen, dose series, 48 h
786-0 = system: 786-0
A498 = system: A498
A549 = system: A549
ACHN = system: ACHN
BT-549 = system: BT-549
CAKI-1 = system: CAKI-1
CCRF-CEM = system: CCRF-CEM
COLO 205 = system: COLO 205
DU-145 = system: DU-145
EKVX = system: EKVX
HCC 2998 = system: HCC 2998
HCT-116 = system: HCT-116
HCT-15 = system: HCT-15
HL-60 = system: HL-60
HOP-62 = system: HOP-62
HOP-92 = system: HOP-92
HT-29 = system: HT-29
Hs-578T = system: Hs-578T
IGROV-1 = system: IGROV-1
K562 = system: K562
KM12 = system: KM12
LOX IMVI = system: LOX IMVI
M14 = system: M14
MCF7 = system: MCF7
MDA-MB-231 = system: MDA-MB-231
MDA-MB-435 = system: MDA-MB-435
Malme-3M = system: Malme-3M
NCI-H226 = system: NCI-H226
NCI-H23 = system: NCI-H23
NCI-H460 = system: NCI-H460
NCI-H522 = system: NCI-H522
NCI/ADR-RES = system: NCI/ADR-RES
OVCAR-3 = system: OVCAR-3
OVCAR-4 = system: OVCAR-4
OVCAR-5 = system: OVCAR-5
OVCAR-8 = system: OVCAR-8
PC-3 = system: PC-3
RPMI-8226 = system: RPMI-8226
RXF 393 = system: RXF 393
SF-268 = system: SF-268
SF-295 = system: SF-295
SF-539 = system: SF-539
SK-MEL-28 = system: SK-MEL-28
SK-MEL-2 = system: SK-MEL-2
SK-MEL-5 = system: SK-MEL-5
SK-OV-3 = system: SK-OV-3
SN12C = system: SN12C
SNB-19 = system: SNB-19
SNB-75 = system: SNB-75
SR = system: SR
SW-620 = system: SW-620
T47D = system: T47D
TK-10 = system: TK-10
U-251 = system: U-251
UACC-257 = system: UACC-257
UACC-62 = system: UACC-62
UO-31 = system: UO-31

O=C(Cn1ccnc1[N+](=O)[O-])NCCO [ETANIDAZOLE]
GI50 (786-0): > 100 µM (inactive)
GI50 (A498): > 100 µM (inactive)
GI50 (A549): > 100 µM (inactive)
GI50 (ACHN): > 100 µM (inactive)
GI50 (BT-549): > 100 µM (inactive)
GI50 (CAKI-1): > 100 µM (inactive)
GI50 (CCRF-CEM): > 100 µM (inactive)
GI50 (COLO 205): > 100 µM (inactive)
GI50 (DU-145): > 100 µM (inactive)
GI50 (EKVX): > 100 µM (inactive)
GI50 (HCC 2998): 41.8 µM (inactive)
GI50 (HCT-116): > 100 µM (inactive)
GI50 (HCT-15): > 100 µM
GI50 (HL-60): > 100 µM (inactive)
GI50 (HOP-62): > 100 µM (inactive)
GI50 (HOP-92): > 100 µM (inactive)
GI50 (HT-29): > 100 µM (inactive)
GI50 (Hs-578T): > 100 µM (inactive)
GI50 (IGROV-1): > 100 µM (inactive)
GI50 (K562): > 100 µM (inactive)
GI50 (KM12): > 100 µM (inactive)
GI50 (LOX IMVI): > 100 µM (inactive)
GI50 (M14): > 100 µM (inactive)
GI50 (MCF7): > 100 µM (inactive)
GI50 (MDA-MB-231): > 100 µM (inactive)
GI50 (MDA-MB-435): > 100 µM (inactive)
GI50 (Malme-3M): > 100 µM (inactive)
GI50 (NCI-H226): > 100 µM (inactive)
GI50 (NCI-H23): > 100 µM (inactive)
GI50 (NCI-H460): 27.5 µM (inactive)
GI50 (NCI-H522): > 100 µM (inactive)
GI50 (NCI/ADR-RES): > 100 µM (inactive)
GI50 (OVCAR-3): > 100 µM (inactive)
GI50 (OVCAR-4): > 100 µM (inactive)
GI50 (OVCAR-5): > 100 µM (inactive)
GI50 (OVCAR-8): > 100 µM (inactive)
GI50 (PC-3): > 100 µM (inactive)
GI50 (RPMI-8226): > 100 µM (inactive)
GI50 (RXF 393): > 100 µM (inactive)
GI50 (SF-268): > 100 µM (inactive)
GI50 (SF-295): > 100 µM (inactive)
GI50 (SF-539): > 100 µM (inactive)
GI50 (SK-MEL-28): > 100 µM (inactive)
GI50 (SK-MEL-2): > 100 µM (inactive)
GI50 (SK-MEL-5): > 100 µM (inactive)
GI50 (SK-OV-3): > 100 µM (inactive)
GI50 (SN12C): > 100 µM (inactive)
GI50 (SNB-19): > 100 µM (inactive)
GI50 (SNB-75): > 100 µM (inactive)
GI50 (SR): > 100 µM (inactive)
GI50 (SW-620): > 100 µM (inactive)
GI50 (T47D): > 100 µM (inactive)
GI50 (TK-10): > 100 µM (inactive)
GI50 (U-251): > 100 µM (inactive)
GI50 (UACC-257): 56.5 µM (inactive)
GI50 (UACC-62): > 100 µM (inactive)
GI50 (UO-31): > 100 µM (inactive)
